The text below walks through data of paper PMC11574108, “4-Furanylvinylquinoline derivative as a new scaffold for the design of oxidative stress initiator and glucose transporter inhibitor drugs” (Scientific Reports, 2024).

For one test, the system named is PANC-1 spheroids. Put plainly: 3D spheroid cell viability assay. It counts as cell-based. Conditions: Homo sapiens, 3D spheroids, CellTiter-Glo 3D, 72-h treatment, read-out: IC50 PANC-1 (3D model). On the procedure: (§1) The HCT 116 cell lines, AsPC-1, PANC-1 (5,000), and U-251 cells (8,000) in 100 µL of medium were seeded in 96-well ULA Corning spheroid microplates (Sigma-Aldrich) and incubated for 72 h at 37 °C to form spheroids. The medium from each well was then gently removed and freshly prepared solutions of 13 were added. The treated spheroids were incubated for the next 72-h. Afterward, cell viability assays were performed using CellTiter-Glo 3D Reagent (Promega) according to the manufacturer’s protocol. Briefly, CellTiter-Glo 3D Reagent was added in equal volume to the medium in each well. The plate was vigorously mixed for 5 min and then incubated for 25 min at room temperature. The luminescence was measured using a multiplate reader (Synergy 4, BioTek). The experiment for each sample was performed at least three times. The results from the assay are presented as IC50 values, which were calculated using GraphPad Prism v.8.0 (USA).
(§2) To confirm the cytotoxicity ranking, the viability of the cells was also estimated on a 3D spheroid model, which better represented a solid tumour. […] The cell lines that represented pancreatic cancer were less responsive to derivative 13, which was similar to the 2D model. […] However, the activity of derivative 13 was confirmed on the 3D model that reflected a real tumour, which is undoubtedly a positive result and a reason for further, more in-depth studies to clarify the mechanism of action of the 4-furanylvinylquinoline derivative 13.
A general note: Cellular ATP, detected with luciferase, serves as a proxy for viable cell number.

The test system of a further test is HCT 116 p53-/- spheroids. Put plainly: 3D spheroid cell viability assay. It counts as cell-based. Conditions: Homo sapiens, HCT-116, 72 h, 3D spheroids, CellTiter-Glo 3D, 72-h treatment; read-out: IC50 HCT 116 p53-/- (3D model). On the procedure:
as §1, §2

The subject of another test is U-251 spheroids. Put plainly: 3D spheroid cell viability assay. It counts as cell-based. The conditions noted are these: Homo sapiens, 3D spheroids, CellTiter-Glo 3D, 72-h treatment, read-out: IC50 U-251 (3D model). As for the experimental part:
as §1, §2

The next test relates to AsPC-1 spheroids. Briefly: 3D spheroid cell viability assay. It counts as cell-based. The conditions noted are these: Homo sapiens, ASPC1; 3D spheroids, CellTiter-Glo 3D, 72-h treatment; read-out: IC50 AsPC-1 (3D model). As for the experimental part:
as §1, §2

The test system of another test is HCT 116 p53+/+. Put plainly: Apoptosis induction assay (Annexin V/7-AAD). It is filed as cell-based, human. The conditions noted are these: 0.5 µM, 48 h; control nearly 6%. As for the experimental part:
The cells were seeded in 35 mm Petri dishes (200,000 per dish) and incubated at 37 °C overnight. The following day, the medium was changed for a freshly prepared 0.5 µM solution of 13. Analysis was carried out after 48 h using an FITC Annexin V Apoptosis Detection KIT with 7-AAD (Bio-Legend) according to the manufacturer’s protocol. In brief, both adherent and detached cells were collected, washed two times with cold PBS, and centrifuged at 300 g (5 min). Next, the cells were resuspended in 100 µL Annexin V Binding Buffer, 5 µL of FITC Annexin V, and 5 µL 7-AAD Viability Staining Solution. The samples were incubated in the dark for 15 min at room temperature. The percentage of live and apoptotic (sum of early and late apoptotic) cells was estimated using a Muse™ Cell Analyzer. The experiments were carried out three times.
Because derivative 13 affected the cell cycle progression, we decided to determine the type of induced cell death by focusing on the apoptosis pathway. The analysis was performed by measuring the green fluorescence of the annexin V – FITC dye conjugate using capillary flow cytometry. Positive staining is observed when the annexin V binds to the disintegrated membrane of apoptotic cells. […]

The next test deals with HO-1. Put plainly: Western blot, HO-1 protein level. It is filed as cell-based, human. The conditions noted are these: 24 h. On the procedure: The cells (500,000) were seeded in 35 mm Petri dishes (Nunc) and incubated in a solution of the tested compound (0.5 µM and 1 µM) for 24 h and 48 h. The cells were then dissociated using trypsin, collected in Eppendorf tubes, and centrifuged at 2,000 rpm. Next, cell pellets were resuspended in complete RIPA buffer containing a Halt Protease Inhibitor Cocktail and Halt Phosphatase Inhibitor Cocktail along with 0.5 M EDTA (all reagents from Thermo Fisher Scientific) and lysed on ice for 20 min. Afterward, the lysates were sonicated and centrifuged at 10,000 rpm for 10 min at 4 °C. The obtained supernatants were collected for further analysis. The protein concentration was determined using a Micro BCA™ Protein Assay Kit (Thermo Fisher Scientific) according to the manufacturer’s procedure. Equal amounts of proteins (16 µg) were electrophoresed on SDS-Page gels and transferred onto nitrocellulose membranes. Novex Sharp Pre-Stained Protein Standard (Thermo Fisher Scientific) was used as a colored molecular weight marker. The membranes were blocked in 5% non-fat milk prepared in TPBS (PBS supplemented by 0.1% Tween-20) for 1 h. After blocking, the membranes were cut, and then incubated with specific primary monoclonal antibodies (all purchased from Cell Signaling) overnight at 4 °C. The antibodies for the target proteins (CDK1 Mouse mAb #9116, p53 Mouse mAb #2524, FAS Mouse mAb #8023, GLUT-1 Rabbit mAb #12939, HO-1 Rabbit mAb #5853, p21^Waf1/Cip1 Rabbit mAb #2947, PARP #9542) were diluted 1:1000, while the antibodies for the reference proteins (GAPDH Rabbit mAb #2118, β-actin Mouse mAb #3700, and vinculin Rabbit mAb #13901) were diluted 1:2000. The following day, the membranes were washed in TPBS and incubated with horseradish peroxidase (HRP)-conjugated secondary antibodies (Anti-rabbit IgG, HRP-linked Antibody #7074 or Anti-mouse IgG, HRP-linked Antibody #7076) for 1 h at room temperature. The membranes were then washed in TPBS and incubated with a SuperSignal™ West Pico Chemiluminescent Substrate (Thermo Fisher Scientific). […]

Take `O=[N+]([O-])c1ccc(/C=C/c2ccnc3ccccc23)o1` [Compound 13]: the IC50 with PANC-1 spheroids was 2160 ± 370 nM; in the test on HCT 116 p53-/- spheroids, around 1000 nM; in the test with U-251 spheroids, 340 ± 70 nM; in the test on AsPC-1 spheroids, 4180 ± 1000 nM. Moreover, the “percentage of apoptotic cells” value in the test with HCT 116 p53+/+ amounted to 40%. The “HO-1 protein level vs control” value in the test with HO-1 (HCT 116 p53+/+, 1 µM) is reported as “more than twelve-fold”; with HO-1 (HCT 116 p53-/-, 1 µM), “six-fold”; in the test with HO-1 (U-251, 1 µM), “four-fold”.
